Source: ChEMBL document CHEMBL1144210, “Synthesis of all-trans anandamide: a substrate for fatty acid amide hydrolase with dual effects on rabbit platelet activation” (Bioorg Med Chem, 2008)
Activity calls are given as the source filed them. The calls are words filed in the database; no cut-off is given here.

What was measured:
Platelet [1] = test: Induction of platelet aggregation in New Zealand white rabbit ear vein plasma assessed as LDH activity at 0.36 mM; type: functional, cell-based; settings: Oryctolagus cuniculus
Oryctolagus cuniculus [2] = species on record: Oryctolagus cuniculus; test: Inhibition of FAAH in New Zealand white rabbit ear vein platelets assessed as [3H]anandamide hydrolysis at 1.5 uM
Oryctolagus cuniculus [3] = species on record: Oryctolagus cuniculus; test: Inhibition of FAAH in New Zealand white rabbit ear vein platelet assessed as [3H]anandamide hydrolysis at 7.5 uM
Platelet [4] = test: Inhibition of PAF-induced platelet aggregation in New Zealand white rabbit ear vein plasma; type: functional, cell-based; settings: Oryctolagus cuniculus
Platelet [5] = test: Induction of platelet aggregation in New Zealand white rabbit ear vein plasma at 100 uM to 1000 uM; type: functional, cell-based; settings: Oryctolagus cuniculus
Platelet [6] = test: Induction of platelet aggregation in New Zealand white rabbit ear vein plasma in presence of aspirin; type: functional, cell-based; settings: Oryctolagus cuniculus
Platelet [7] = test: Induction of platelet aggregation in New Zealand white rabbit ear vein plasma at 18 uM to 70 uM; type: functional, cell-based; settings: Oryctolagus cuniculus
Platelet [8] = test: Induction of in New Zealand white rabbit ear vein plasma in presence of URB597; type: functional, cell-based; settings: Oryctolagus cuniculus
Platelet [9] = test: Induction of platelet aggregation in New Zealand white rabbit ear vein plasma in presence of indomethacin; type: functional, cell-based; settings: Oryctolagus cuniculus
Platelet [10] = test: Induction of platelet aggregation in New Zealand white rabbit ear vein plasma in presence of PMSF; type: functional, Oryctolagus cuniculus

Row | SMILES | Activity (Platelet [1]) | Activity (Oryctolagus cuniculus [2]) | Activity (Oryctolagus cuniculus [3]) | IC50 (Platelet [4]) [µM] | Activity (Platelet [5]) | Activity (Platelet [6]) | Activity (Platelet [7]) | Activity (Platelet [8]) | Activity (Platelet [9]) | inhibition (INH) (Platelet [10]) [%]
1 | CCCCC/C=C\C/C=C\C/C=C\C/C=C\CCCC(=O)NCCO | Dose-dependent effect | Active | Active | – | – | – | – | – | – | –
2 | CCCCC/C=C/C/C=C/C/C=C/C/C=C/CCCC(=O)NCCO | Active | Active | Active | 4.7 | Dose-dependent effect | Active | Dose-dependent effect | inactive | Active | 20
